The source made the active and inactive calls. The calls are words filed in the database; no cut-off is given here.
What was measured:
[1] = Ratio of MBC for bactericidal activity against Bacillus subtilis CMCC (B) 63501 to MIC for antibacterial activity against Bacillus subtilis CMCC (B) 63501; format: functional
[2] = tested on: Staphylococcus aureus; experiment: Antibacterial activity against Staphylococcus aureus ATCC 29213 assessed as inhibition of bacterial growth incubated for 20 to 24 hrs by broth micro dilution method; format: functional; details: time 20-24 hrs
[3] = tested on: Staphylococcus aureus; experiment: Antibacterial activity against methicillin-resistant Staphylococcus aureus ATCC 43300 assessed as inhibition of bacterial growth incubated for 20 to 24 hrs by broth micro dilution method; format: functional; details: time 20-24 hrs
[4] = tested on: Staphylococcus aureus; experiment: Antibacterial activity against methicillin-resistant Staphylococcus aureus ATCC BAA-1720 assessed as inhibition of bacterial growth incubated for 20 to 24 hrs by broth micro dilution method; format: functional; details: time 20-24 hrs
[5] = tested on: Bacillus subtilis; experiment: Antibacterial activity against Bacillus subtilis CMCC (B) 63501 assessed as inhibition of bacterial growth incubated for 20 to 24 hrs by broth micro dilution method; format: functional; details: time 20-24 hrs
[6] = tested on: Enterococcus faecium; experiment: Antibacterial activity against Enterococcus faecium ATCC 49624 assessed as inhibition of bacterial growth incubated for 20 to 24 hrs by broth micro dilution method; format: functional; details: time 20-24 hrs
[7] = tested on: Enterococcus faecalis; experiment: Antibacterial activity against Enterococcus faecalis ATCC 29212 assessed as inhibition of bacterial growth incubated for 20 to 24 hrs by broth micro dilution method; format: functional; details: time 20-24 hrs
[8] = tested on: Enterococcus faecium; experiment: Antibacterial activity against vancomycin-resistant Enterococcus faecium clinical isolate assessed as inhibition of bacterial growth incubated for 20 to 24 hrs by broth micro dilution method; format: functional; details: time 20-24 hrs
[9] = tested on: Escherichia coli; experiment: Antibacterial activity against NDM-1 expressing Escherichia coli ATCC BAA2469 assessed as inhibition of bacterial growth incubated for 20 to 24 hrs by broth micro dilution method; format: functional; details: time 20-24 hrs
[10] = tested on: Acinetobacter baumannii; experiment: Antibacterial activity against multi-drug resistant Acinetobacter baumannii ATCC 19606 assessed as inhibition of bacterial growth incubated for 20 to 24 hrs by broth micro dilution method; format: functional; details: time 20-24 hrs
[11] = tested on: Klebsiella pneumoniae; experiment: Antibacterial activity against NDM-1 expressing Klebsiella pneumoniae ATCC BAA 2470 assessed as inhibition of bacterial growth incubated for 20 to 24 hrs by broth micro dilution method; format: functional; details: time 20-24 hrs
[12] = tested on: Bacillus subtilis; experiment: Bactericidal activity against Bacillus subtilis CMCC (B) 63501 assessed as inhibition of bacterial growth incubated for 24 hrs by resazurin dye based microtiter plate assay; format: functional
[13] = tested on: Staphylococcus aureus; experiment: Bactericidal activity against Staphylococcus aureus ATCC 29213 assessed as inhibition of bacterial growth incubated for 24 hrs by resazurin dye based microtiter plate assay; format: functional
[14] = tested on: Staphylococcus aureus; experiment: Bactericidal activity against Staphylococcus aureus ATCC 43300 assessed as inhibition of bacterial growth incubated for 24 hrs by resazurin dye based microtiter plate assay; format: functional
[15] = tested on: Enterococcus faecium; experiment: Bactericidal activity against Enterococcus faecium ATCC 700221 assessed as inhibition of bacterial growth incubated for 24 hrs by resazurin dye based microtiter plate assay; format: functional
[16] = tested on: Staphylococcus aureus; experiment: Antibacterial activity against Staphylococcus aureus ATCC 29213 assessed reduction in viable bacterial count upto 4 times MIC measured after 8 hrs by time-kill kinetics assay; format: functional
[17] = tested on: Staphylococcus aureus; experiment: Antibacterial activity against Staphylococcus aureus ATCC 29213 assessed as assessed as reduction in viable bacterial count upto 8 times MIC measured after 8 hrs by time-kill kinetics assay; format: functional
[18] = tested on: Staphylococcus aureus; experiment: Antibacterial activity against methicillin-resistant Staphylococcus aureus ATCC BAA41 assessed as fractional inhibitory concentration index incubated for 24 hrs by checker board assay; format: functional
[19] = tested on: Staphylococcus aureus; experiment: Antibacterial activity against methicillin-resistant Staphylococcus aureus ATCC BAA41 assessed as inhibition of bacterial growth incubated for 24 hrs by checker board assay; format: functional
[20] = tested on: Staphylococcus aureus; experiment: Synergistic antibacterial activity against methicillin-resistant Staphylococcus aureus ATCC BAA41 assessed as inhibition of bacterial growth incubated for 24 hrs in presence of methicillin by checker board assay; format: functional
[21] = tested on: Bacillus subtilis; experiment: Induction of morphological changes in Bacillus subtilis CMCC (B) 63501 assessed as elongation of bacterial cell at 0.5 times MIC for 4 hrs (reference value: 3 to 5 um) by microscopic analysis; format: functional
[22] = tested on: Staphylococcus aureus; experiment: Induction of morphological changes in Staphylococcus aureus ATCC 29213 assessed as enlargement of cell size at 0.5 times MIC for 4 hrs by microscopic analysis; format: functional, organism-based
[23] = target: T1, Cell division protein FtsZ (Staphylococcus aureus) (UniProt P0A031); experiment: Induction of Staphylococcus aureus FtsZ polymerization expressed in Escherichia coli BL21 (DE3) assessed as increase in absorbance at 2 to 8 ug/ml by microplate reader method; details: dose 2-8 µg/ml
T1 sequence (whole entry): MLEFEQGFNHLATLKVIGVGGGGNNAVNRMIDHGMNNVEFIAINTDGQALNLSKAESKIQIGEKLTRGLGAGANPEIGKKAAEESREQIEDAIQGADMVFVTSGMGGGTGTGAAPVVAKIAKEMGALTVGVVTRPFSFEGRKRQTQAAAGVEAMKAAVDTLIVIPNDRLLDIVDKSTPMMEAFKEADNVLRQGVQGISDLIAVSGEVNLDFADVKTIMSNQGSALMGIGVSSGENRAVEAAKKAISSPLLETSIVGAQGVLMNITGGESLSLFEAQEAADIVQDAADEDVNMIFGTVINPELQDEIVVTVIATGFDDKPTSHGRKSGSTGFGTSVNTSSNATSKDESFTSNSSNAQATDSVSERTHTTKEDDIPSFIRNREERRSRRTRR

[24] = target: T1, Cell division protein FtsZ (Staphylococcus aureus); experiment: Binding affinity to Staphylococcus aureus FtsZ assessed as increase in alpha helix structure at 8 ug/ml incubated for 30 mins by circular dichroism method (reference value: 30.5 %); details: dose 8.0 µg/ml
[25] = target: T1, Cell division protein FtsZ (Staphylococcus aureus); experiment: Binding affinity to Staphylococcus aureus FtsZ assessed as decrease in beta turn structure at 8 ug/ml incubated for 30 mins by circular dichroism method (reference value: 17.4 %); set-up: scale not given: the % may be the effect or the level left; details: dose 8.0 µg/ml
[26] = target: T1, Cell division protein FtsZ (Staphylococcus aureus); experiment: Binding affinity to Staphylococcus aureus FtsZ assessed as decrease in random coil structure at 8 ug/ml incubated for 30 mins by circular dichroism method (reference value: 34.5 %); set-up: scale not given: the % may be the effect or the level left; details: dose 8.0 µg/ml
[27] = target: T1, Cell division protein FtsZ (Staphylococcus aureus); experiment: Binding affinity to Staphylococcus aureus FtsZ assessed as decrease in other structure at 8 ug/ml for 30 mins by circular dichroism method (reference value: 34.5 %); set-up: scale not given: the % may be the effect or the level left; details: dose 8.0 µg/ml
[28] = target: T2, Cell division protein FtsZ (Staphylococcus aureus, UniProt P0A031); experiment: Binding affinity to Staphylococcus aureus FtsZ assessed as dissociation constant by isothermal titration calorimetry
T2 sequence (P0A031 whole entry): T1 sequence (whole entry)

[29] = tested on: Erythrocyte; experiment: Hemolytic activity in Kunming mouse erythrocyte at 1 to 64 ug/ml incubated for 1 hr; format: toxicity, cell-based; details: dose 1-64 µg/ml
[30] = Cytotoxicity against mouse L929 cells incubated for 48 hrs by MTT assay; format: toxicity, cell-based
[31] = Cytotoxicity against human HK-2 cells incubated for 48 hrs by MTT assay; format: toxicity, cell-based
[32] = tested on: Staphylococcus aureus; experiment: Antibacterial activity against Staphylococcus aureus ATCC 29213 infected in HK-2 cells assessed as inhibition of bacterial growth incubated for 20 to 24 hrs by broth micro dilution method; format: functional; details: time 20-24 hrs
[33] = tested on: Staphylococcus aureus; experiment: Induction of drug resistance against Staphylococcus aureus ATCC 29213 assessed as fold increase in MIC after 16 passage; format: functional
[34] = tested on: Bacillus subtilis; experiment: Induction of drug resistance against Bacillus subtilis CMCC (B) 63501 measured after 16 passages; format: functional; details: dose <= 64.0 µg/ml, time 30.0 min

Question: Which Ratio [1] does the source give for `CC1CCN(c2cc(/C=C/c3ccc(N(C)C)cc3)[n+](C)c3ccccc23)CC1.[I-]` here?
Answer: 1

Question: And the MIC [2]?
Answer: 1 µg/mL

Question: What about the MIC [3] of the same molecule?
Answer: 1 µg/mL

Question: And the MIC [4]?
Answer: 1 µg/mL

Question: And the MIC [5]?
Answer: 4 µg/mL

Question: And the MIC [6]?
Answer: 8 µg/mL

Question: What about the MIC [7] of the same molecule?
Answer: 2 µg/mL

Question: And the MIC [8]?
Answer: 4 µg/mL

Question: What about the MIC [9] of the same molecule?
Answer: 64 µg/mL

Question: And the MIC [10]?
Answer: > 64 µg/mL

Question: And the MIC [11]?
Answer: > 64 µg/mL

Question: What about the MBC [12] of the same molecule?
Answer: 4 µg/mL

Question: What about the MBC [13] of the same molecule?
Answer: 8 µg/mL

Question: What about the MBC [14] of the same molecule?
Answer: 8 µg/mL

Question: And the MBC [15]?
Answer: 4 µg/mL

Question: And the Activity [16]?
Answer: 1000 CFU/ml

Question: What about the Activity [17] of the same molecule?
Answer: 1000 CFU/ml

Question: What about the “fractional inhibitory concentration index (FICI)” value [18] of the same molecule?
Answer: 0.3125

Question: What about the MIC [19] of the same molecule?
Answer: 8 µg/mL

Question: And the MIC [20]?
Answer: 2 µg/mL

Question: What about the Activity [21] of the same molecule?
Answer: 70 um

Question: And the Activity [22]?
Answer: Active

Question: And the Activity [23]?
Answer: Active

Question: And the Activity [24]?
Answer: 41%

Question: What about the Activity [25] of the same molecule?
Answer: 15.5%

Question: What about the Activity [26] of the same molecule?
Answer: 28.4%

Question: What about the Activity [27] of the same molecule?
Answer: 15.1%

Question: And the Kd [28]?
Answer: 3.84 µM

Question: What about the IC5 [29] of the same molecule?
Answer: 64 µg/mL

Question: And the IC50 at 48 h [30]?
Answer: 12.8 µg/mL

Question: What about the IC50 at 48 h [31] of the same molecule?
Answer: 9.42 µg/mL

Question: What about the MIC [32] of the same molecule?
Answer: 1 µg/mL

Question: What about the fold change (FC) [33] of the same molecule?
Answer: 8

Question: What about the Activity [34] of the same molecule?
Answer: Active

Source: ChEMBL document CHEMBL5154863, “Design and synthesis of quinolinium-based derivatives targeting FtsZ for antibacterial evaluation and mechanistic study” (Eur J Med Chem, 2022)
